{"source": "patent US20080166423A1", "about": "“Combination Medication for Treating the Effects of Stomach Acid Reduction Medication on Bone Integrity” (priority 2007, published 2008)", "origin": "cited, not measured here", "conditions": "per day"}
{"compound": "CC(=O)Nc1ccc(O)cc1", "note": "[Acetaminophen]", "values": [{"measurement": "daily dosage with known liver toxicity", "value": "> 4000", "unit": "mg"}]}
